According to ChEMBL document CHEMBL1201862, “PubChem BioAssay data set” (2004):
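Following 48 hours of exposure in 96-well plates, responses at five concentrations were used to interpolate endpoints linearly. GI50: concentration for 50% inhibition of growth.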 Calls of active or inactive are those of the source. Cut-off read from the data, not from the text of the source: active = GI50 up to about 1.1 µM and inactive = higher.

What was measured:
Experiment in all cases: NCI anticancer screen, dose series, 48 h
786-0 = test system: 786-0
A549 = test system: A549
EKVX = test system: EKVX
HCT-116 = test system: HCT-116
HT-29 = test system: HT-29
K562 = test system: K562
KM12 = test system: KM12
MCF7 = test system: MCF7
MDA-MB-231 = test system: MDA-MB-231
MOLT-4 = test system: MOLT-4
NCI-H226 = test system: NCI-H226
NCI-H460 = test system: NCI-H460
NCI-H522 = test system: NCI-H522
OVCAR-4 = test system: OVCAR-4
PC-3 = test system: PC-3
SK-MEL-2 = test system: SK-MEL-2
T47D = test system: T47D
UACC-257 = test system: UACC-257
UACC-62 = test system: UACC-62

| Compound | GI50 (786-0) | GI50 (A549) | GI50 (EKVX) | GI50 (HCT-116) | GI50 (HT-29) | GI50 (K562) | GI50 (KM12) | GI50 (MCF7) | GI50 (MDA-MB-231) | GI50 (MOLT-4) | GI50 (NCI-H226) | GI50 (NCI-H460) | GI50 (NCI-H522) | GI50 (OVCAR-4) | GI50 (PC-3) | GI50 (SK-MEL-2) | GI50 (T47D) | GI50 (UACC-257) | GI50 (UACC-62) |
| --- | --- | --- | --- | --- | --- | --- | --- | --- | --- | --- | --- | --- | --- | --- | --- | --- | --- | --- | --- |
| O=c1c2ccccc2sc2c(CO)ccc(NCCN3CCCCC3)c12 | 2.47 µM (inactive) | 3.46 µM (inactive) | 4.66 µM (inactive) | 2.38 µM (inactive) | 2.94 µM (inactive) | 2 µM (inactive) | 3.55 µM (inactive) | 2.99 µM (inactive) | 5.48 µM (inactive) | 1.04 µM (active) | 2.85 µM (inactive) | 2.68 µM (inactive) | 1.58 µM (inactive) | 2.48 µM (inactive) | 4.31 µM (inactive) | 4.47 µM (inactive) | 5.25 µM (inactive) | 2.07 µM (inactive) | 4.33 µM (inactive) |
| CC1SCc2nc3ccccc3n21 (stereo not given) | > 100 µM (inactive) | > 100 µM (inactive) | > 100 µM (inactive) | > 100 µM (inactive) | > 100 µM (inactive) | > 100 µM (inactive) | > 100 µM (inactive) | > 100 µM (inactive) | > 100 µM (inactive) | > 100 µM (inactive) | 3.58 µM (inactive) | > 100 µM (inactive) | > 100 µM (inactive) | > 100 µM (inactive) | > 100 µM (inactive) | > 100 µM (inactive) | > 100 µM (inactive) | > 100 µM (inactive) | > 100 µM (inactive) |
| COc1ccc(/C(CC2OC(=O)c3ccccc32)=N\NC(N)=O)cc1 (stereo not given) | > 100 µM (inactive) | > 100 µM (inactive) | > 100 µM (inactive) | > 100 µM (inactive) | > 100 µM (inactive) | > 100 µM (inactive) | > 100 µM (inactive) | > 100 µM (inactive) | > 100 µM (inactive) | > 100 µM (inactive) | > 100 µM (inactive) | > 100 µM (inactive) | > 100 µM (inactive) | > 100 µM (inactive) | > 100 µM (inactive) | > 100 µM (inactive) | > 100 µM (inactive) | > 100 µM (inactive) | > 100 µM (inactive) |
| COc1cc(C2c3cc4c(cc3OC(Nc3ccc(C(=O)O)cc3)C2C)OCO4)cc(OC)c1OC (stereo not given) | 0.468 µM (active) | 0.373 µM (active) | 0.745 µM (active) | 0.31 µM (active) | 0.329 µM (active) | 0.3 µM (active) | 0.241 µM (active) | 0.232 µM (active) | 0.189 µM (active) | 0.434 µM (active) | 2.31 µM (inactive) | 0.326 µM (active) | 0.376 µM (active) | 0.458 µM (active) | 0.253 µM (active) | 0.579 µM (active) | 0.458 µM (active) | > 40.3 µM (inactive) | 0.403 µM (active) |
| CSC(=N/N=C(\C)c1ccc(S(=O)(=O)N(C)c2ccccc2)cc1)SC | > 64.9 µM (inactive) | > 100 µM (inactive) | > 65 µM (inactive) | > 64.7 µM (inactive) | > 84.9 µM (inactive) | > 53.1 µM (inactive) | > 64.4 µM (inactive) | 31.1 µM (inactive) | > 61.8 µM (inactive) | 17.2 µM (inactive) | > 100 µM (inactive) | > 100 µM (inactive) | > 100 µM (inactive) | > 58.6 µM (inactive) | > 62.7 µM (inactive) | > 62.2 µM (inactive) | > 60.7 µM (inactive) | > 100 µM (inactive) | > 65.8 µM (inactive) |
